Test results from US20060178293A1, “Cardiotonic polypeptides” (priority 2003, published 2006).

Test system: isolated cardiomyocytes derived from adult rats
Settings: electrically stimulated; 0.35 μg/ml (FIG. 5)

NCCc1ccc(O)c(O)c1 [inotropin]
mechanical contractility (cell length changes), optically monitored: obvious increase in contractility
